Measurements from PubChem BioAssay (NCI).
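Grown in 96-well plates, cells were treated for 48 hours with each compound at five concentrations. Insufficient inhibition: endpoint recorded as highest concentration tested. GI50 = concentration required for 50% inhibition of growth. TGI is the concentration that stops growth completely.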

Columns and labels:
Assay in all cases: NCI anticancer screen, dose series, 48 h
PC-3 prostate = tested on: PC-3 prostate
RPMI-8226 leukemia = tested on: RPMI-8226 leukemia
MCF7 breast = tested on: MCF7 breast
SK-MEL-28 melanoma = tested on: SK-MEL-28 melanoma
NCI-H23 lung = tested on: NCI-H23 lung
UACC-257 melanoma = tested on: UACC-257 melanoma
CCRF-CEM leukemia = tested on: CCRF-CEM leukemia
BT-549 breast = tested on: BT-549 breast
SW-620 colon = tested on: SW-620 colon
SN12C renal = tested on: SN12C renal
HOP-62 NSCLC = tested on: HOP-62 NSCLC
MOLT-4 leukemia = tested on: MOLT-4 leukemia
NCI/ADR-RES ovarian = tested on: NCI/ADR-RES ovarian
OVCAR-4 ovarian = tested on: OVCAR-4 ovarian
LOX IMVI melanoma = tested on: LOX IMVI melanoma
HL-60(TB) leukemia = tested on: HL-60(TB) leukemia
SNB-19 CNS = tested on: SNB-19 CNS
COLO 205 colon = tested on: COLO 205 colon
UACC-62 melanoma = tested on: UACC-62 melanoma
RXF 393 renal = tested on: RXF 393 renal
HCT-15 colon = tested on: HCT-15 colon
NCI-H522 lung = tested on: NCI-H522 lung
SR leukemia = tested on: SR leukemia
SK-OV-3 ovarian = tested on: SK-OV-3 ovarian
OVCAR-8 ovarian = tested on: OVCAR-8 ovarian
HOP-92 NSCLC = tested on: HOP-92 NSCLC
EKVX NSCLC = tested on: EKVX NSCLC
786-0 renal = tested on: 786-0 renal
K-562 leukemia = tested on: K-562 leukemia
SNB-75 CNS = tested on: SNB-75 CNS
U251 CNS = tested on: U251 CNS
IGROV1 ovarian = tested on: IGROV1 ovarian
SF-295 CNS = tested on: SF-295 CNS
TK-10 renal = tested on: TK-10 renal
SF-539 CNS = tested on: SF-539 CNS
A498 renal = tested on: A498 renal
OVCAR-3 ovarian = tested on: OVCAR-3 ovarian
NCI-H460 lung = tested on: NCI-H460 lung
KM12 colon = tested on: KM12 colon
M14 melanoma = tested on: M14 melanoma
MDA-MB-231 breast = tested on: MDA-MB-231 breast
MDA-MB-468 breast = tested on: MDA-MB-468 breast
SF-268 CNS = tested on: SF-268 CNS
MALME-3M melanoma = tested on: MALME-3M melanoma
OVCAR-5 ovarian = tested on: OVCAR-5 ovarian
ACHN renal = tested on: ACHN renal
HCC-2998 colon = tested on: HCC-2998 colon
A549 NSCLC = tested on: A549 NSCLC
DU-145 prostate = tested on: DU-145 prostate
T-47D breast = tested on: T-47D breast
HS 578T breast = tested on: HS 578T breast
SK-MEL-5 melanoma = tested on: SK-MEL-5 melanoma
CAKI-1 renal = tested on: CAKI-1 renal
SK-MEL-2 melanoma = tested on: SK-MEL-2 melanoma
NCI-H226 lung = tested on: NCI-H226 lung
MDA-MB-435 = tested on: MDA-MB-435
HT29 colon = tested on: HT29 colon
UO-31 renal = tested on: UO-31 renal
HCT-116 colon = tested on: HCT-116 colon

## O=C(c1ccc(Cl)cc1)C1[C@H](c2ccccc2Cl)[C@@H](c2ccccc2)NC12C(=O)Nc1ccccc12 (some centres undefined)
PC-3 prostate
  GI50: 14.3 µM
  TGI: 72.9 µM
RPMI-8226 leukemia
  GI50: 25.7 µM
  TGI: 91.3 µM
MCF7 breast
  GI50: 16.2 µM
  TGI: 58.4 µM
SK-MEL-28 melanoma
  GI50: 18.2 µM
  TGI: 40.3 µM
NCI-H23 lung
  GI50: 18.3 µM
  TGI: 52 µM
UACC-257 melanoma
  GI50: 23.3 µM
  TGI: 79 µM
CCRF-CEM leukemia
  GI50: 27.2 µM
  TGI: 95 µM
BT-549 breast
  GI50: 16.2 µM
  TGI: 48.5 µM
SW-620 colon
  GI50: 17.6 µM
  TGI: 51.2 µM
SN12C renal
  GI50: 13.7 µM
  TGI: 28.4 µM
HOP-62 NSCLC
  GI50: 17.4 µM
  TGI: 61.8 µM
MOLT-4 leukemia
  GI50: 20.3 µM
  TGI: 74.9 µM
NCI/ADR-RES ovarian
  GI50: 14.9 µM
  TGI: 35.8 µM
OVCAR-4 ovarian
  GI50: 25.6 µM
  TGI: > 100 µM
LOX IMVI melanoma
  GI50: 13.2 µM
  TGI: 27.3 µM
HL-60(TB) leukemia
  GI50: 17 µM
  TGI: 58.8 µM
SNB-19 CNS
  GI50: 30 µM
  TGI: > 100 µM
COLO 205 colon
  GI50: 16.3 µM
  TGI: 29.9 µM
UACC-62 melanoma
  GI50: 12.6 µM
  TGI: 27.8 µM
RXF 393 renal
  GI50: 13.2 µM
  TGI: 34.3 µM
HCT-15 colon
  GI50: 25.3 µM
  TGI: > 100 µM
NCI-H522 lung
  GI50: 15.2 µM
  TGI: 46.3 µM
SR leukemia
  GI50: 14.7 µM
  TGI: 53.5 µM
SK-OV-3 ovarian
  GI50: 20.8 µM
  TGI: 82.7 µM
OVCAR-8 ovarian
  GI50: 22 µM
  TGI: 72.3 µM
HOP-92 NSCLC
  GI50: 17.7 µM
  TGI: 58.4 µM
EKVX NSCLC
  GI50: 23.7 µM
  TGI: > 100 µM
786-0 renal
  GI50: 20.5 µM
  TGI: 51.6 µM
K-562 leukemia
  GI50: 21.7 µM
  TGI: > 100 µM
SNB-75 CNS
  GI50: 11 µM
  TGI: 71.3 µM
U251 CNS
  GI50: 23 µM
  TGI: 64.8 µM
IGROV1 ovarian
  GI50: 26.1 µM
  TGI: > 100 µM
SF-295 CNS
  GI50: 18.2 µM
  TGI: 49.7 µM
TK-10 renal
  GI50: 23.4 µM
  TGI: 87.9 µM
SF-539 CNS
  GI50: 18.1 µM
  TGI: 36 µM
A498 renal
  GI50: 20.8 µM
  TGI: 60.1 µM
OVCAR-3 ovarian
  GI50: 12.5 µM
  TGI: 35 µM
NCI-H460 lung
  GI50: 17.8 µM
  TGI: 36.8 µM
KM12 colon
  GI50: 20.2 µM
  TGI: 58.1 µM
M14 melanoma
  GI50: 16.3 µM
  TGI: 43.1 µM
MDA-MB-231 breast
  GI50: 15 µM
  TGI: 40.8 µM
MDA-MB-468 breast
  GI50: 3.54 µM
  TGI: 20.6 µM
SF-268 CNS
  GI50: 23.2 µM
  TGI: > 100 µM
MALME-3M melanoma
  GI50: 15.7 µM
  TGI: 34.8 µM
OVCAR-5 ovarian
  GI50: 18.5 µM
  TGI: 66.7 µM
ACHN renal
  GI50: 20.9 µM
  TGI: 71.8 µM
HCC-2998 colon
  GI50: 19.1 µM
  TGI: 51.7 µM
A549 NSCLC
  GI50: 24.9 µM
  TGI: > 100 µM
DU-145 prostate
  GI50: 17.1 µM
  TGI: 51.2 µM
T-47D breast
  GI50: 18.3 µM
  TGI: 74.1 µM
HS 578T breast
  GI50: 12 µM
  TGI: 34.6 µM
SK-MEL-5 melanoma
  GI50: 15.2 µM
  TGI: 29.3 µM
CAKI-1 renal
  GI50: 18.9 µM
  TGI: > 100 µM
SK-MEL-2 melanoma
  GI50: 14.8 µM
  TGI: 32.1 µM
NCI-H226 lung
  GI50: 17.6 µM
  TGI: 47.4 µM
MDA-MB-435
  GI50: 12.7 µM
  TGI: 28.8 µM
HT29 colon
  GI50: 14.6 µM
  TGI: 35 µM
UO-31 renal
  GI50: 16.4 µM
  TGI: > 100 µM
HCT-116 colon
  GI50: 14.5 µM
  TGI: 29.6 µM

## COc1ccc(NC(=O)Nc2nc3ccc([N+](=O)[O-])cc3s2)cc1
PC-3 prostate
  GI50: 2.15 µM
  TGI: 8.35 µM
RPMI-8226 leukemia
  GI50: 1.83 µM
  TGI: 5.97 µM
MCF7 breast
  GI50: 2.2 µM
  TGI: 6.31 µM
SK-MEL-28 melanoma
  GI50: 3.09 µM
  TGI: 11.9 µM
NCI-H23 lung
  GI50: 2.22 µM
  TGI: 6.64 µM
CCRF-CEM leukemia
  GI50: 2.27 µM
  TGI: 7.69 µM
SW-620 colon
  GI50: 3.07 µM
  TGI: 13.8 µM
SN12C renal
  GI50: 2.66 µM
  TGI: 8.64 µM
HOP-62 NSCLC
  GI50: 2.92 µM
  TGI: 10.7 µM
MOLT-4 leukemia
  GI50: 2.71 µM
  TGI: 10.7 µM
NCI/ADR-RES ovarian
  GI50: 2.62 µM
  TGI: 8.16 µM
OVCAR-4 ovarian
  GI50: 2.84 µM
  TGI: 12.6 µM
LOX IMVI melanoma
  GI50: 2.42 µM
  TGI: 6.18 µM
HL-60(TB) leukemia
  GI50: 2.1 µM
  TGI: 5.84 µM
SNB-19 CNS
  GI50: 2.85 µM
  TGI: 16.8 µM
UACC-62 melanoma
  GI50: 2.63 µM
  TGI: > 100 µM
RXF 393 renal
  GI50: 2.54 µM
  TGI: 7.24 µM
HCT-15 colon
  GI50: 2.68 µM
  TGI: 10.4 µM
NCI-H522 lung
  GI50: 1.72 µM
  TGI: 5.94 µM
SR leukemia
  GI50: 2.52 µM
  TGI: 12.8 µM
SK-OV-3 ovarian
  GI50: 2.37 µM
  TGI: 7.09 µM
OVCAR-8 ovarian
  GI50: 3.18 µM
  TGI: 13.7 µM
HOP-92 NSCLC
  GI50: 1.92 µM
  TGI: 5.97 µM
EKVX NSCLC
  GI50: 2.66 µM
  TGI: 7.96 µM
786-0 renal
  GI50: 2.89 µM
  TGI: 11.6 µM
K-562 leukemia
  GI50: 2.71 µM
  TGI: 13 µM
U251 CNS
  GI50: 2.24 µM
  TGI: 5.76 µM
IGROV1 ovarian
  GI50: 3.37 µM
  TGI: 15.3 µM
SF-295 CNS
  GI50: 1.9 µM
  TGI: 4.3 µM
TK-10 renal
  GI50: 3.66 µM
  TGI: 10.7 µM
SF-539 CNS
  GI50: 2.41 µM
  TGI: 5.95 µM
A498 renal
  GI50: 1.66 µM
  TGI: 4.83 µM
OVCAR-3 ovarian
  GI50: 2.15 µM
  TGI: 5.36 µM
NCI-H460 lung
  GI50: 2.37 µM
  TGI: 5.79 µM
KM12 colon
  GI50: 2.22 µM
  TGI: 5.92 µM
M14 melanoma
  GI50: 2.73 µM
  TGI: 9.02 µM
MDA-MB-231 breast
  GI50: 2.76 µM
  TGI: 7.86 µM
MDA-MB-468 breast
  GI50: 1.66 µM
  TGI: 4.17 µM
SF-268 CNS
  GI50: 2.91 µM
  TGI: 16.2 µM
MALME-3M melanoma
  GI50: 2.19 µM
  TGI: 6.21 µM
OVCAR-5 ovarian
  GI50: 2.8 µM
  TGI: 9.95 µM
ACHN renal
  GI50: 2.48 µM
  TGI: 7.09 µM
HCC-2998 colon
  GI50: 2.72 µM
  TGI: 9.54 µM
A549 NSCLC
  GI50: 2.23 µM
  TGI: 6.22 µM
DU-145 prostate
  GI50: 3.02 µM
  TGI: 11.4 µM
T-47D breast
  GI50: 1.67 µM
  TGI: 6.66 µM
HS 578T breast
  GI50: 2.81 µM
  TGI: 8.21 µM
CAKI-1 renal
  GI50: 2.08 µM
  TGI: 5.01 µM
NCI-H226 lung
  GI50: 2.31 µM
  TGI: 6.63 µM
MDA-MB-435
  GI50: 1.92 µM
  TGI: 5.68 µM
HT29 colon
  GI50: 3.34 µM
  TGI: 14.8 µM
UO-31 renal
  GI50: 2.51 µM
  TGI: 8.98 µM
HCT-116 colon
  GI50: 2.52 µM
  TGI: 7.67 µM
